Three molecules from EP1179538A1, “PEPTIDES BLOCKING RESPONSE TO CHEMICAL SUBSTANCES OR THERMAL STIMULI OR NOCICEPTOR INFLAMMATION MEDIATORS AND COMPOSITIONS CONTAINING SAID PEPTIDES” (Universidad Miguel Hernandez de Elche, priority 1999, dated 2002) can be followed below.

In the test the target is VR1 nocireceptor. The test is described as follows: Blockage of capsaicin-activated ionic current in X. laevis ovocites expressing the VR1 nocireceptor (two-microelectrode voltage clamp). It is filed as cell-based. Particulars: VR1 expressed in X. laevis ovocites; activated by capsaicin 20 µM; transmembrane voltage -80 mV; read-out: peptide concentrations that inhibited half of the VR1 response (IC50). From the text:
This test comprises contacting X. laevi ovocites expressing the VR1 nocireceptor with an agonist (ligand) for said VR1 nocireceptor, for example, capsaicin, in the presence or absence of the compound to be tested, maintaining the transmembrane voltage constant at -80 mV, and detecting the inhibiting activity of said compound to be tested by measuring the agonist-activated ionic current in the presence and absence of the compound to be tested. The power and effectiveness of the inhibiting activity of the compound to be tested can be determined by obtaining the dosage-response curves. To achieve this, the magnitude of the capsaicin-activated ionic current blockage is examined in X. laevi ovocites that express the VR1 nocireceptor in the presence of the growing concentrations of the compound to be tested. The ratio of ionic current intensities in the presence and absence of the compound to be tested permits the obtention of dosage-response curves (19,20). These graphs can be adjusted to logarithmic functions to determine the maximum blockage (power) and the antagonist concentration produced by half the maximum blockage (IC50 effective).
In order to evaluate the biological activity of peptides obtained in Example 1.1 a test was developed to evaluate the power of said peptides blocking the agonist-activated ionic current in X. laevis ovocites that express the VR1 nocireceptor.
The heterologous expression of receptors in X. laevis ovocites can be carried out according to the procedure described by Ferrer-Montiel and Montal (19). […] The capsaicin agonist-activated ionic currents are recorded with the maintenance of the constant voltage technique with two microelectrodes (two-microelectrode voltage clamp) (19, 20). […] The inhibiting activity is detected by measuring the agonist -activated ionic current in the presence and absence of the peptides.
The power and effectiveness of the peptide inhibiting activity is determined by means of the obtention of dosage-response curves. […]

Peptide text beside a SMILES is read from it.

As for `N=C(N)NCCC[C@H](NC(=O)[C@H](CCCNC(=N)N)NC(=O)[C@H](CCCNC(=N)N)NC(=O)[C@@H](N)CCCNC(=N)N)C(=O)N[C@@H](Cc1c[nH]c2ccccc12)C(=O)N[C@@H](Cc1c[nH]c2ccccc12)C(=O)O` [SEC. ID. N1: 1, Arg-Arg-Arg-Arg-Trp-Trp] (H-RRRRWW-OH), the IC50 is ~100 nM.
Turning to `CC[C@H](C)[C@H](NC(=O)[C@H](Cc1c[nH]c2ccccc12)NC(=O)[C@H](Cc1c[nH]c2ccccc12)NC(=O)[C@H](CCCNC(=N)N)NC(=O)[C@@H](N)CCCNC(=N)N)C(=O)N[C@@H](CCCNC(=N)N)C(=O)O` [SEC. ID. N1: 2, Arg-Arg-Trp-Trp-Ile-Arg] (H-RRWWIR-OH), the IC50 was ~2000 nM.
With `N=C(N)NCCC[C@H](NC(=O)[C@H](CCCNC(=N)N)NC(=O)[C@H](Cc1ccc(O)cc1)NC(=O)[C@H](Cc1ccc(O)cc1)NC(=O)[C@@H](N)CCCNC(=N)N)C(=O)N[C@@H](Cc1c[nH]c2ccccc12)C(=O)O` [SEC. ID. N1: 3, Arg-Tyr-Tyr-Arg-Arg-Trp] (H-RYYRRW-OH) the figure was ~10000 nM.
